Structure (SMILES)	melting point
CCCS(=O)(=O)Nc1ccc(-c2c(C#N)c3ccc(Oc4nc(C)ccc4C#N)cc3n2C2CCC2)cc1 [Compound 3309]	219 to 221 °C
CCCS(=O)(=O)Nc1ccc(-c2c(C#N)c3ccc(Oc4ncccc4C(C)=O)cc3n2C2CCC2)cc1 [Compound 3311]	191 to 194 °C
CC(C)Nc1ccc(-c2c(C#N)c3ccc(Oc4ncccn4)cc3n2C2CCC2)cn1 [Compound 3312]	206 to 208 °C
N#Cc1c(-c2ccc(NC3CC3)nc2)n(C2CCC2)c2cc(Oc3ncccn3)ccc12 [Compound 3313]	244 to 246 °C
C[C@H](NS(=O)(=O)Nc1ccc(-c2c(C#N)c3ccc(N4CCOCC4)cc3n2C2CCC2)cc1)C1CC1 [Compound 3314]	198 to 199 °C
C[C@@H](OC(=O)Nc1ccc(-c2c(C#N)c3ccc(-n4ccccc4=O)cc3n2C2CCC2)cc1)C1CC1 [Compound 3315]	237 to 238 °C
C[C@@H](OC(=O)Nc1ccc(-c2c(C#N)c3ccc(-n4ccccc4=O)cc3n2C2CCC2)cc1)C(F)(F)F [Compound 3316]	244 to 245 °C
Cc1noc(C)c1-c1ccc2c(C#N)c(-c3ccc(NC(=O)O[C@H](C)C4CC4)cc3)n(C3CCC3)c2c1 [Compound 3317]	225 °C (dec.)
C[C@@H](OC(=O)Nc1ccc(-c2c(C#N)c3ccc(N4CCS4(=O)=O)cc3n2C2CCC2)cc1)C1CC1 [Compound 3318]	235 °C (dec.)
C[C@@H](OC(=O)Nc1ccc(-c2c(C#N)c3ccc(Oc4ncccn4)cc3n2C2CCC2)cn1)C(F)(F)F [Compound 3322]	227 to 229 °C
CC(C)NC(=O)Nc1ccc(-c2c(C#N)c3ccc(Oc4ncccn4)cc3n2C2CCC2)cc1C#N [Compound 3325]	173 to 181 °C
O=S1(=O)CCCN1c1ccc(-c2cc3ccc(Oc4ncccn4)cc3n2CC2CC2)cc1 [Compound 3326]	98 to 99 °C
CC(C)Nc1ncc(-c2c(C#N)c3ccc(Oc4ncccn4)cc3n2C2CCC2)cn1 [Compound 3327]	213 to 215 °C
N#Cc1c(-c2cnc(NC3CC3)nc2)n(C2CCC2)c2cc(Oc3ncccn3)ccc12 [Compound 3328]	227 to 229 °C
N#Cc1c(-c2cnc(NC3CCC3)nc2)n(C2CCC2)c2cc(Oc3ncccn3)ccc12 [Compound 3329]	237 to 238 °C
N#Cc1c(-c2cnc(NC3CCCC3)nc2)n(C2CCC2)c2cc(Oc3ncccn3)ccc12 [Compound 3330]	230 to 231 °C
N#Cc1c(-c2cnc(NC3CCCCC3)nc2)n(C2CCC2)c2cc(Oc3ncccn3)ccc12 [Compound 3331]	217 to 218 °C
C[C@@H](OC(=O)Nc1ccc(-c2c(C#N)c3ccc(N4CCCC4=O)cc3n2C2CCC2)cc1)C1CC1 [Compound 3332]	140 °C (dec.)
Cc1cc(NC(=O)O[C@H](C)C2CC2)ccc1-c1c(C#N)c2ccc(Oc3ncccc3C#N)cc2n1C1CCC1 [Compound 3333]	108 to 115 °C
Cc1cc(NC(=O)O[C@H](C)C2CC2)ccc1-c1c(C#N)c2ccc(Oc3nccnc3C#N)cc2n1C1CCC1 [Compound 3334]	108 to 116 °C
CCCS(=O)(=O)Nc1cc(C)c(-c2c(C#N)c3ccc(Oc4ncccc4C#N)cc3n2C2CCC2)cc1C [Compound 3335]	227 to 230 °C
CCCS(=O)(=O)Nc1cc(C)c(-c2c(C#N)c3ccc(Oc4nccnc4C#N)cc3n2C2CCC2)cc1C [Compound 3336]	257 to 259 °C
Cc1cccn(-c2ccc3c(C#N)c(-c4ccc(NC(=O)O[C@H](C)C5CC5)cc4)n(C4CCC4)c3c2)c1=O [Compound 3338]	280 to 281 °C
Cc1cccn(-c2ccc3c(C#N)c(-c4ccc(NC(=O)OC(C)C)cc4)n(C4CCC4)c3c2)c1=O [Compound 3339]	284 to 285 °C
Cc1cccn(-c2ccc3c(C#N)c(-c4ccc(NS(=O)(=O)CC(C)C)cc4)n(C4CCC4)c3c2)c1=O [Compound 3340]	290 to 291 °C

Structure (SMILES)	melting point
Cc1cccn(-c2ccc3c(C#N)c(-c4ccc(NC(=O)O[C@H](C)C(F)(F)F)cc4)n(C4CCC4)c3c2)c1=O [Compound 3341]	265 to 266 °C
Cc1cccn(-c2ccc3c(C#N)c(-c4ccc(NC(=O)NC(C)C)cc4)n(C4CCC4)c3c2)c1=O [Compound 3342]	266 to 267.5 °C
CCCS(=O)(=O)Nc1ccc(-c2c(C#N)c3ccc(Oc4ncccc4C#N)cc3n2C2CCC2)c(OC)c1 [Compound 3344]	227 to 230 °C
CCCS(=O)(=O)Nc1ccc(-c2c(C#N)c3ccc(Oc4ncccc4C#N)cc3n2C2CCC2)c(F)c1 [Compound 3346]	113 to 116 °C
N#Cc1c(-c2ccc(NC3CCC3)nc2)n(C2CCC2)c2cc(Oc3ncccn3)ccc12 [Compound 3348]	229 to 231 °C
CCn1c(-c2ccc3c(ccn3S(C)(=O)=O)c2)c(C#N)c2ccc(OC)cc21 [compound 1330, 1-ethyl-1′-methanesulfonyl-6-methoxy-1H,1′H-[2,5′]biindolyl-3-carbonitrile]	148 to 151 °C
CCn1c(-c2ccc3c(ccn3S(=O)(=O)CC)c2)c(C#N)c2ccc(OC)cc21 [compound 1331]	157 to 160 °C
CS(=O)(=O)Nc1ccc(-c2c(C#N)c3ccc(OC(F)F)cc3n2CC2CCCO2)cc1 (stereo not shown) [compound 1334, N-{4-[3-cyano-6-difluoromethoxy-1-(tetrahydro-furan-2-ylmethyl)-1H-indole-2-yl]-phenyl}-methanesulfonamide]	87 to 88 °C
CCOc1ccc(-c2c(C#N)c3ccc(N4CCN(C(=O)OC(C)(C)C)CC4)cc3n2CC)cc1 [compound 1337, 4-[3-cyano-2-(4-ethoxyphenyl)-1-ethylindol-6-yl]piperazine-1-carboxylic acid tert-butyl ester]	183 to 184 °C
CCOC(=O)Nc1ccc(-c2c(C#N)c3ccc(N4CCN(C)CC4)cc3n2CC)cc1 [compound 1339]	177 to 178 °C
CCC(=O)Nc1ccc(-c2c(C#N)c3ccc(N4CCN(C)CC4)cc3n2CC)cc1 [compound 1341, N-{4-[3-cyano-1-ethyl-6-(4-methylpiperazin-1-yl)-indol-2-yl]phenyl}propionamide]	170 to 171 °C
CCN(CC)c1nc2ccc(-c3c(C#N)c4ccc(OC)cc4n3CC)cc2s1 [compound 1343, 2-(2-Diethylaminobenzothiazol-6-yl)-1-ethyl-6-methoxy-1H-indole-3-carbonitrile]	155 to 158 °C
CCOc1ccc2c(C#N)c(-c3ccc(N4CCCOC4=O)cc3)n(C3CCC3)c2c1 [compound 1346, 1-cyclobutyl-6-ethoxy-2-[4-(2-oxo-[1,3]oxazinan-3-yl)-phenyl]-1H-indole-3-carbonitrile]	226 to 228 °C
CCOC(=O)Nc1ccc(-c2c(C#N)c3ccc(OCCOC)cc3n2C2CCC2)cc1 [compound 1397, {4-[3-cyano-1-cyclobutyl-6-(2-methoxy-ethoxy)-1H-indole-2-yl]-phenyl}-carbamic acid ethyl ester]	170 to 171 °C
CCOc1ccc2c(C#N)c(-c3ccc(NC(=O)NCCO)cc3)n(C3CCC3)c2c1 [compound 1408, 1-[4-(3-cyano-1-cyclobutyl-6-ethoxy-1H-indol-2-yl)-phenyl]-3-(2-hydroxy-ethyl)-urea]	199 to 203 °C
CC(C)OC(=O)Nc1ccc(-c2c(C#N)c3ccc(OCC(O)Cn4cncn4)cc3n2C2CCC2)cc1 (stereo not shown) [compound 1420, {4-[3-Cyano-1-cyclobutyl-6-(2-hydroxy-3-[1,2,4]triazol-1-yl-propoxy)-1H-indol-2-yl]-phenyl}-carbamic acid isopropyl ester]	209 to 215 °C
COCCOc1ccc2c(C#N)c(-c3ccc(NC(=O)OC(C)C4CC4)cc3)n(C3CCC3)c2c1 (stereo not shown) [compound 1423, [4-(3-cyano-1-cyclobutyl-6-(2-methoxyethoxy)-1H-indol-2-yl)-phenyl]-carbamic acid 1-cyclopropyl-ethyl ester]	192 to 193 °C
CCOc1ccc2c(C#N)c(-c3ccc(NC(=O)OCCOCCOC)cc3)n(C3CCC3)c2c1 [compound 1424, [4-(3-cyano-1-cyclobutyl-6-ethoxy-1H-indol-2-yl)-phenyl]-carbamic acid 2-(2-methoxyethoxy)-ethyl ester]	65 to 72 °C
CCOc1ccc2c(C#N)c(-c3ccc(N(CC)C(=O)NC4CCCC4)cc3)n(C3CCC3)c2c1 [compound 1425, 1-[4-(3-cyano-1-cyclobutyl-6-ethoxy-1H-indol-2-yl)-phenyl]-3-cyclopenyl-1-ethyl-urea]	153 to 160 °C
CC(C)OC(=O)Nc1ccc(-c2c(C#N)c3ccc(OCCC4COC(C)(C)O4)cc3n2C2CCC2)cc1 (stereo not shown) [compound 1428, (4-{3-cyano-1-cyclobutyl-6-[2-(2,2-dimethyl-[1,3]dioxolan-4-yl)-ethoxy]-1H-indol-2-yl}-phenyl)-carbamic acid isopropyl ester]	141 to 145 °C
CC(C)OC(=O)Nc1ccc(-c2c(C#N)c3ccc(OCCC(O)CO)cc3n2C2CCC2)cc1 (stereo not shown) [compound 1429, {4-[3-cyano-1-cyclobutyl-6-(3,4-dihydroxy-butoxy)-1H-indol-2-yl]-phenyl}-carbamic acid isopropyl ester]	132 to 134 °C
CCOc1ccc2c(C#N)c(-c3ccc(NCCc4ccccn4)cc3)n(C3CCC3)c2c1 [compound 1433, 1-cyclobutyl-6-ethoxy-2-[4-(2-pyridin-2-yl-ethylamino)-phenyl]-1H-indole-3-carbonitrile]	153 to 156 °C
CC(OC(=O)Nc1ccc(-c2c(C#N)c3ccc(OC4CCCO4)cc3n2C2CC2)cc1)C1CC1 (stereo not shown) [compound 1444, {4-[3-cyano-1-cyclopropyl-6-(tetrahydrofuran-2-yloxy)indol-2-yl]phenyl}carbamic acid 1-cyclopropylethyl ester]	189 to 191 °C
CC(C)OC(=O)Nc1ccc(-c2c(C#N)c3ccc(OC4CCOCC4)cc3n2C2CCC2)cc1 [compound 2616, {4-[3-cyano-1-cyclobutyl-6-(tetrahydro-pyran-4-yloxy)-1H-indole-2-yl]-phenyl}-carbamic acid isopropyl ester]	197 to 199 °C
